# In US20220409620A1, “REDUCING IMMUNOGENICITY TO PEGLOTICASE” (Horizon Pharma Rheumatology LLC, priority 2016, published 2022):
# Tested on: adult patients with uncontrolled gout
# Test: Health Assessment Questionnaire (HAQ-DI, HAQ pain, HAQ health), open-label study
# Format: in vivo, human
# Parameters: key to HAQ-Health, Observed, Median / HAQ-Health, Change from Baseline, Median: 0-100 scale; 0 = very well, 100 = very poor health; key to HAQ-DI, Observed, Median / HAQ-DI, Change from Baseline, Median: HAQ-DI scale 0-3; 0 = no difficulty, 3 = unable to do
# Conditions: mITT Population
# Protocol: Quality-of-Life Assessment: The HAQ was administered at the Screening and Week −4 or week −6 (prior to the first dose of MTX) Visits during the MTX Run-in Period for the open-label and randomized studies, respectively; prior to pegloticase infusion at the Day 1 and Weeks 14, 24 and 36 Visits or at the Day 1 and weeks 6, 14, 20, 24, 30, 36, and 44 visits during the Pegloticase+IMM Period for the open-label and randomized studies, respectively; at the End of Pegloticase Infusions Visit (if applicable), the Week 52/End of Study/Early Termination Visit and the Post Treatment Periods 3 and 6 Month Follow-up Visits (open-label study). The HAQ-DI is a self-report functional status instrument that can be filled out by a subject in less than 5 minutes and requires 1 minute to score. The index measures disability over the past week by asking a total of 20 questions covering 8 domains of function: dressing and grooming, arising, eating, walking, hygiene, reach, grip, and usual activities. There are at least 2 questions in each domain and the 8 domains represent a comprehensive set of functional activities. The HAQ-DI is calculated by scoring the answer to each question in the HAQ from 0 to 3, with 0 representing the ability to do without any difficulty, and 3 representing inability to do. Any activity that requires assistance from another individual or requires the use of an assistive device raises a 0 or 1 score to a 2. The highest score for each of the 8 domains is summed (range from 0 to 24) and divided by 8 to yield, on a scale with 25 possible values, a Functional Disability Index with a range from 0 to 3. The disability index is based on the number of domains answered and is computed only if the subject completes answers to at least 6 domains. The HAQ pain scale asks subjects to record how much pain they have had in the past week on a scale of 0 to 100, where zero represents “no pain” and 100 represents “severe pain”. The HAQ health scale is a measure of overall health. Subjects are asked to rate how well they are doing on a score of 0 to 100, where zero represents “very well” and 100 represents “very poor” health.
# [1] = Week 52/ET, Methotrexate Baseline
# [2] = Week 52/ET, Pegloticase Baseline
substance,measurement,setting,value
pegloticase,"HAQ-Health, Observed, Mean (SD)","Week 14, Pegloticase Baseline",36.6 (33.87)
same,"HAQ-Health, Observed, Median","Week 14, Pegloticase Baseline",16.5
same,"HAQ-Pain, Change from Baseline, Mean (SD)","Week 14, Pegloticase Baseline",−16.0 (30.65)
same,"HAQ-Pain, Change from Baseline, Median","Week 14, Pegloticase Baseline",−12.5
same,"HAQ-Pain, Observed, Mean (SD)","Week 14, Pegloticase Baseline",27.1 (26.25)
same,"HAQ-Pain, Observed, Median","Week 14, Pegloticase Baseline",15.0
same,"HAQ-DI, Change from Baseline, Mean (SD)","Week 24, Methotrexate Baseline",−0.5 (0.74)
same,"HAQ-DI, Change from Baseline, Median","Week 24, Methotrexate Baseline",−0.1
same,"HAQ-DI, Observed, Mean (SD)","Week 24, Methotrexate Baseline",0.2 (0.33)
same,"HAQ-DI, Observed, Median","Week 24, Methotrexate Baseline",0.1
same,"HAQ-Health, Change from Baseline, Mean (SD)","Week 24, Methotrexate Baseline",−33.2 (36.01)
same,"HAQ-Health, Change from Baseline, Median","Week 24, Methotrexate Baseline",−40.0
same,"HAQ-Health, Observed, Mean (SD)","Week 24, Methotrexate Baseline",21.4 (26.65)
same,"HAQ-Health, Observed, Median","Week 24, Methotrexate Baseline",10.0
same,"HAQ-Pain, Change from Baseline, Mean (SD)","Week 24, Methotrexate Baseline",−19.2 (35.13)
same,"HAQ-Pain, Change from Baseline, Median","Week 24, Methotrexate Baseline",−10.0
same,"HAQ-Pain, Observed, Mean (SD)","Week 24, Methotrexate Baseline",25.4 (27.50)
same,"HAQ-Pain, Observed, Median","Week 24, Methotrexate Baseline",20.0
same,"HAQ-DI, Change from Baseline, Mean (SD)","Week 24, Pegloticase Baseline",−0.6 (0.85)
same,"HAQ-DI, Change from Baseline, Median","Week 24, Pegloticase Baseline",−0.1
same,"HAQ-DI, Observed, Mean (SD)","Week 24, Pegloticase Baseline",0.2 (0.33)
same,"HAQ-DI, Observed, Median","Week 24, Pegloticase Baseline",0.1
same,"HAQ-Health, Change from Baseline, Mean (SD)","Week 24, Pegloticase Baseline",−19.7 (43.38)
same,"HAQ-Health, Change from Baseline, Median","Week 24, Pegloticase Baseline",−10.0
same,"HAQ-Health, Observed, Mean (SD)","Week 24, Pegloticase Baseline",21.4 (26.65)
same,"HAQ-Health, Observed, Median","Week 24, Pegloticase Baseline",10.0
same,"HAQ-Pain, Change from Baseline, Mean (SD)","Week 24, Pegloticase Baseline",−16.7 (38.53)
same,"HAQ-Pain, Change from Baseline, Median","Week 24, Pegloticase Baseline",−10.0
same,"HAQ-Pain, Observed, Mean (SD)","Week 24, Pegloticase Baseline",25.4 (27.50)
same,"HAQ-Pain, Observed, Median","Week 24, Pegloticase Baseline",20.0
same,"HAQ-DI, Change from Baseline, Mean (SD)","Week 36, Methotrexate Baseline",−0.5 (0.80)
same,"HAQ-DI, Change from Baseline, Median","Week 36, Methotrexate Baseline",0.0
same,"HAQ-DI, Observed, Mean (SD)","Week 36, Methotrexate Baseline",0.3 (0.49)
same,"HAQ-DI, Observed, Median","Week 36, Methotrexate Baseline",0.1
same,"HAQ-Health, Change from Baseline, Mean (SD)","Week 36, Methotrexate Baseline",−27.7 (42.59)
same,"HAQ-Health, Change from Baseline, Median","Week 36, Methotrexate Baseline",−10.0
same,"HAQ-Health, Observed, Mean (SD)","Week 36, Methotrexate Baseline",27.3 (35.18)
same,"HAQ-Health, Observed, Median","Week 36, Methotrexate Baseline",10.0
same,"HAQ-Pain, Change from Baseline, Mean (SD)","Week 36, Methotrexate Baseline",−22.9 (28.41)
same,"HAQ-Pain, Change from Baseline, Median","Week 36, Methotrexate Baseline",−20.0
same,"HAQ-Pain, Observed, Mean (SD)","Week 36, Methotrexate Baseline",21.0 (27.60)
same,"HAQ-Pain, Observed, Median","Week 36, Methotrexate Baseline",10.0
same,"HAQ-DI, Change from Baseline, Mean (SD)","Week 36, Pegloticase Baseline",−0.5 (0.86)
same,"HAQ-DI, Change from Baseline, Median","Week 36, Pegloticase Baseline",−0.1
same,"HAQ-DI, Observed, Mean (SD)","Week 36, Pegloticase Baseline",0.3 (0.49)
same,"HAQ-DI, Observed, Median","Week 36, Pegloticase Baseline",0.1
same,"HAQ-Health, Change from Baseline, Mean (SD)","Week 36, Pegloticase Baseline",−16.2 (50.72)
same,"HAQ-Health, Change from Baseline, Median","Week 36, Pegloticase Baseline",−10.0
same,"HAQ-Health, Observed, Mean (SD)","Week 36, Pegloticase Baseline",27.3 (35.18)
same,"HAQ-Health, Observed, Median","Week 36, Pegloticase Baseline",10.0
same,"HAQ-Pain, Change from Baseline, Mean (SD)","Week 36, Pegloticase Baseline",−19.9 (20.25)
same,"HAQ-Pain, Change from Baseline, Median","Week 36, Pegloticase Baseline",−20.0
same,"HAQ-Pain, Observed, Mean (SD)","Week 36, Pegloticase Baseline",21.0 (27.60)
same,"HAQ-Pain, Observed, Median","Week 36, Pegloticase Baseline",10.0
same,"HAQ-DI, Change from Baseline, Mean (SD)",[1],−0.6 (0.87)
same,"HAQ-DI, Change from Baseline, Median",[1],−0.1
same,"HAQ-DI, Observed, Mean (SD)",[1],0.4 (0.29)
same,"HAQ-DI, Observed, Median",[1],0.3
same,"HAQ-Health, Change from Baseline, Mean (SD)",[1],−16.7 (59.23)
same,"HAQ-Health, Change from Baseline, Median",[1],15.0
same,"HAQ-Health, Observed, Mean (SD)",[1],60.0 (48.22)
same,"HAQ-Health, Observed, Median",[1],80.0
same,"HAQ-Pain, Change from Baseline, Mean (SD)",[1],−42.7 (18.04)
same,"HAQ-Pain, Change from Baseline, Median",[1],−44.0
same,"HAQ-Pain, Observed, Mean (SD)",[1],4.0 (5.20)
same,"HAQ-Pain, Observed, Median",[1],1.0
same,"HAQ-DI, Change from Baseline, Mean (SD)",[2],−0.8 (1.08)
same,"HAQ-DI, Change from Baseline, Median",[2],−0.1
same,"HAQ-DI, Observed, Mean (SD)",[2],0.4 (0.29)
same,"HAQ-DI, Observed, Median",[2],0.3
same,"HAQ-Health, Change from Baseline, Mean (SD)",[2],23.3 (54.85)
same,"HAQ-Health, Change from Baseline, Median",[2],5.0
same,"HAQ-Health, Observed, Mean (SD)",[2],60.0 (48.22)
same,"HAQ-Health, Observed, Median",[2],80.0
same,"HAQ-Pain, Change from Baseline, Mean (SD)",[2],−41.0 (25.24)
same,"HAQ-Pain, Change from Baseline, Median",[2],−29.0
same,"HAQ-Pain, Observed, Mean (SD)",[2],4.0 (5.20)
same,"HAQ-Pain, Observed, Median",[2],1.0
